Measured values published in patent US9085571B2, “Nonpeptide HIV-1 protease inhibitors” (Purdue Research Foundation, priority 2008, dated 2015).

target: HIV-1 protease (Human immunodeficiency virus type 1 group M subtype B (isolate HXB2) (HIV-1), UniProt P04585); assay: Inhibition of HIV proteases (inhibition constants, method of Toth and Marshall); assay type: biochemical; settings: not given
Source text: Techniques for measurement of the ability of the compounds herein described to decrease the proteolytic activity of proteases encoded by HIV are well known to those skilled in the relevant art and any one or combination of such techniques can be used to measure the inhibition of protease activity of the compound herein described. One illustrative method is described by Toth and Marshall (Toth & Marshall, Int. J. Pep. Protein Res. (1990), 36, 544-550). The disclosure of the foregoing is incorporated herein in its entirety by reference. In addition, the entirety of the disclosures of each of the publications cited herein are also incorporated herein by reference.

`COc1ccc(S(=O)(=O)N(CC(C)C)C[C@@H](O)[C@H](Cc2ccccc2)NC(=O)c2cccc(C(=O)N(C)Cc3oc(C)nc3C)c2)cc1` and `COc1ccc(S(=O)(=O)N(CC(C)C)C[C@@H](O)[C@H](Cc2ccccc2)NC(=O)c2cccc(C(=O)N(C)Cc3nc(C)co3)c2)cc1` are the same in Ki: 0.6 nM for the first, 0.6 nM for the second.

Going from `COc1ccc(S(=O)(=O)N(CC(C)C)C[C@@H](O)[C@H](Cc2ccccc2)NC(=O)c2cc(N)cc(C(=O)N(C)C3CCCCC3)c2)cc1` to `CNc1cc(C(=O)N[C@@H](Cc2ccccc2)[C@H](O)CN(CC(C)C)S(=O)(=O)c2ccc(OC)cc2)cc(C(=O)N(C)C2CCCCC2)c1`, the Ki falls from 300 nM to 200 nM (1.5-fold).

`CCCNC(=O)c1cc(N)cc(C(=O)N[C@@H](Cc2ccccc2)[C@H](O)CN(CC(C)C)S(=O)(=O)c2ccc(OC)cc2)c1` and `CCCNC(=O)c1cc(NC)cc(C(=O)N[C@@H](Cc2ccccc2)[C@H](O)CN(CC(C)C)S(=O)(=O)c2ccc(OC)cc2)c1` are within 1.5-fold of each other in Ki: 400 nM for the first, 300 nM for the second.

First: Cc1nc(CNC(=O)c2cccc(C(=O)N[C@@H](Cc3ccccc3)[C@H](O)CN3C[C@H]4CCCC[C@H]4C[C@H]3C(=O)NC(C)(C)C)c2)c(C)o1
Second: Cc1nc(CN(C)C(=O)c2cccc(C(=O)N[C@@H](Cc3ccccc3)[C@H](O)CN3C[C@H]4CCCC[C@H]4C[C@H]3C(=O)NC(C)(C)C)c2)c(C)o1
The Ki of the first is 4-fold higher: 20 nM for the first, 5 nM for the second. The second binds more tightly here.

First: COc1ccc(S(=O)(=O)N(CC(C)C)C[C@@H](O)[C@H](Cc2ccccc2)NC(=O)c2cc(C(=O)N(C)C3CCCCC3)cc(N(C)C(=O)OC(C)(C)C)c2)cc1
Second: COc1ccc(S(=O)(=O)N(CC(C)C)C[C@@H](O)[C@H](Cc2ccccc2)NC(=O)c2cc(OC)cc(C(=O)N(C)C3CCCCC3)c2)cc1
The Ki of the first is 25-fold higher: 1000 nM for the first, 40 nM for the second.

Going from `CCCN(C)C(=O)c1cc(C(=O)N[C@@H](Cc2ccccc2)[C@H](O)CN(CC(C)C)S(=O)(=O)c2ccc(OC)cc2)cc(N(C)C(=O)OC(C)(C)C)c1` to `CCCN(C)C(=O)c1cc(NC)cc(C(=O)N[C@@H](Cc2ccccc2)[C@H](O)CN(CC(C)C)S(=O)(=O)c2ccc(OC)cc2)c1`, the Ki falls from 1000 nM to 200 nM (5-fold).

Compared with `CCCNC(=O)c1cc(OC)cc(C(=O)N[C@@H](Cc2ccccc2)[C@H](O)CN(CC(C)C)S(=O)(=O)c2ccc(OC)cc2)c1`, `CCCN(C)C(=O)c1cc(OC)cc(C(=O)N[C@@H](Cc2ccccc2)[C@H](O)CN(CC(C)C)S(=O)(=O)c2ccc(OC)cc2)c1` is 2.5-fold lower in Ki: 50 nM for the first, 20 nM for the second. The second binds more tightly here.

Going from `CCCN(CCC)C(=O)c1cccc(C(=O)N[C@@H](Cc2ccccc2)[C@H](O)CN2C[C@H]3CCCC[C@H]3C[C@H]2C(=O)NC(C)(C)C)c1` to `CCCN(CCC)C(=O)c1cccc(C(=O)N[C@@H](Cc2ccccc2)[C@H](O)CN(CC(C)C)S(=O)(=O)c2ccc(OC)cc2)c1`, the Ki falls from 100 nM to 20 nM (5-fold). The second binds more tightly here.

Going from `COCc1coc(CN(C)C(=O)c2cccc(C(=O)N[C@@H](Cc3ccccc3)[C@H](O)CN(CC(C)C)S(=O)(=O)c3ccc(OC)cc3)c2)n1` to `COc1ccc(S(=O)(=O)N(CC(C)C)C[C@@H](O)[C@H](Cc2ccccc2)NC(=O)c2cccc(C(=O)N(C)Cc3csc(C)n3)c2)cc1`, the Ki falls from 0.3 nM to 0.1 nM (3-fold). The second binds more tightly here.

First: Cc1coc(CN(C)C(=O)c2cccc(C(=O)N[C@@H](Cc3ccccc3)[C@H](O)CN(CC(C)C)S(=O)(=O)c3ccc(CO)cc3)c2)n1
Second: Cc1nc(CN(C)C(=O)c2cccc(C(=O)N[C@@H](Cc3ccccc3)[C@H](O)CN(CC(C)C)S(=O)(=O)c3ccc(N)cc3)c2)c(C)o1
The Ki of the first is 3.3-fold lower: 0.6 nM for the first, 2 nM for the second. The first binds more tightly here.

Compared with `COc1ccc(S(=O)(=O)N(CC(C)C)C[C@@H](O)[C@H](Cc2ccccc2)NC(=O)c2cc(C)cc(C(=O)N(C)Cc3nc(C)oc3C)c2)cc1`, `COc1ccc(S(=O)(=O)N(CC(C)C)C[C@@H](O)[C@H](Cc2ccccc2)NC(=O)c2cc(N)cc(C(=O)N(C)Cc3nc(C)oc3C)c2)cc1` is 500-fold higher in Ki: 0.2 nM for the first, 100 nM for the second.

Going from `COc1ccc(S(=O)(=O)N(CC(C)C)C[C@@H](O)[C@H](Cc2ccccc2)NC(=O)c2cncc(C(=O)N(C)Cc3nc(C)oc3C)c2)cc1` to `COc1ccc(S(=O)(=O)N(CC(C)C)C[C@@H](O)[C@H](Cc2ccccc2)NC(=O)c2ccc(C(=O)N(C)Cc3nc(C)oc3C)cc2)cc1`, the Ki rises from 6 nM to 70 nM (12-fold). The first binds more tightly here.

Compared with `COc1ccc(S(=O)(=O)N(CC(C)C)C[C@@H](O)[C@H](Cc2ccccc2)NC(=O)c2cc(OC)cc(C(=O)N(C)Cc3nc(C)oc3C)c2)cc1`, `CNc1cc(C(=O)N[C@@H](Cc2ccccc2)[C@H](O)CN(CC(C)C)S(=O)(=O)c2ccc(OC)cc2)cc(C(=O)N(C)Cc2nc(C)oc2C)c1` is 5-fold higher in Ki: 1 nM for the first, 5 nM for the second.

Going from `COc1ccc(S(=O)(=O)N(CC(C)C)C[C@@H](O)[C@H](Cc2ccccc2)NC(=O)c2ccccc2C(=O)N(C)Cc2nc(C)oc2C)cc1` to `COc1ccc(S(=O)(=O)N(CC(C)C)C[C@@H](O)[C@H](Cc2ccccc2)NC(=O)c2cccc(C(=O)N3CCC[C@H]3c3nc(C)cs3)c2)cc1`, the Ki falls from 600 nM to 30 nM (20-fold). The second binds more tightly here.

In the case of `COc1ccc(S(=O)(=O)N(CC(C)C)C[C@@H](O)[C@H](Cc2ccccc2)NC(=O)c2cccc(C(=O)N3CCC[C@@H]3c3nc(C)cs3)c2)cc1`, the Ki is reported as 0.03 to 8 nM.

test system: HIV-1; assay: Inhibition of HIV-1 (IC50); assay type: cell-based, human immunodeficiency virus type 1; settings: Human immunodeficiency virus 1

Going from `COc1ccc(S(=O)(=O)N(CC(C)C)C[C@@H](O)[C@H](Cc2ccccc2)NC(=O)c2cccc(C(=O)N(C)Cc3nc(C)co3)c2)cc1` to `COc1ccc(S(=O)(=O)N(CC(C)C)C[C@@H](O)[C@H](Cc2ccccc2)NC(=O)c2cc(C)cc(C(=O)N(C)Cc3nc(C)oc3C)c2)cc1`, the IC50 rises from 20 nM to 30 nM (1.5-fold).

Work on `COc1ccc(S(=O)(=O)N(CC(C)C)C[C@@H](O)[C@H](Cc2ccccc2)NC(=O)c2cccc(C(=O)N3CCC[C@@H]3c3nc(C)cs3)c2)cc1` yielded an IC50 of 32 nM.
